Results taken from US20230266302A1, “SYNTHESIS AND USE OF N-BENZYL SULFONAMIDES” (THE UNIVERSITY OF TULSA, priority 2020, published 2023).

Columns and labels:
Assay in all cases: ATP level assay (CellTiter-Glo), percent of control
Assay type in all cases: cell-based
HeLa (cervical cancer) = details: two hour incubation; for activity at 100 µM: Homo sapiens, HeLa, 2 h, compound alone, control DMSO, read-out: POC (percent of control) HeLa
Description: (§1) In the present method, the method of using the available assays has been modified to measure the short-term effect of compounds of interest on ATP levels in the cells. […] In the modified method, the control and test cells are initially treated with the metabolic inhibitor for a period of about thirty minutes to about four hours. Typically, the treatment of the cells with the metabolic inhibitor is for one hour prior to adding the compound to be screened for anti-cancer properties. However, simultaneous treatment with the metabolic inhibitor and the compound being screened should provide satisfactory results. […] ATP synthesis in cells occurs over multiple biochemical pathways. These pathways are very responsive to metabolic inhibitors and/or changes in available nutrients. By incorporating a metabolic inhibitor which is known to impact certain pathways, the disclosed method provides for measurement of a compound's direct effects on the remaining metabolic pathways available for ATP synthesis in the cell.
(§2) Following treatment of the control and test cells with the metabolic inhibitor, the method calls for addition of the compound to be screened for anti-cancer properties to the cells. Following addition of the compound of interest, the assay is allowed to continue for about one hour to about four hours or depending on the luminescing agent up to eighteen hours. However, approximately 60 minutes will be sufficient to determine the ATP inhibiting effect of the compound to be screened on the cells. Following completion of the selected time period, the ATP level within the cell is determined. ATP levels can be determined by luminescence according to standard measuring procedures, i.e. the luminescence level of the assay from the living cells treated with the two component composition is compared to the luminescence level of the assay from the living cells without the two component composition, i.e., the control experiment. Thus, the ATP levels are determined without killing the cells during the incubation of the cells in the presence of the compound of interest. As a result, the measured reduction in ATP level corresponds directly to the inhibition of the metabolic pathways uninhibited by the metabolic blocker.
(§3) A wide variety of ATP luminescing detection reagents are available commercially. So long as the reagent produces a luminescence in the presence of ATP, the reagent will be suitable for use in the present method. Suitable reagents include but are not limited to any ATP dependent luciferase such as but not limited to firefly luciferase, other modified luciferase based reagents, i.e. luciferase derivatives. According to the rapid method for determining the anti-cancer activity of a compound, a sample of living cells is distributed across a number of testing wells. Typically, 96-well plates are used; however, the number of wells is not critical to the current method. When using a 96-well plate the number of living cells will commonly be about 20,000. The sample wells contain a cell growth medium to promote cell health and growth and an additive to prevent bacterial contamination of the wells. One common example of the cell growth medium is DMEM with 10% FBS as described above. One example of the additive to prevent bacterial contamination is a solution of penicillin G and streptomycin referred to commonly as Pen-Strep. The Pen-Strep solution typically contains 5000 units of penicillin G and 5000 micrograms of streptomycin. Thus, the rapid determination of anti-cancer compounds can be carried out using the following method. • The desired number of cells are distributed in a 96-well plate containing 100 μL DMEM plus 10% FBS with optional Pen-Strep. • After 24 hours, cells are treated with the compound of interest or a 5% solution of dimethyl sulfoxide (DMSO) in water as a control. • The time period for exposure to the compound of interest and the DMSO control will vary depending on the luminescing detection reagent. […]

H293 (kidney cancer) = details: two hour incubation; for activity at 100 µM: 2 h, compound alone, control DMSO, read-out: POC (percent of control) H293
Description: as §1, §2, §3

HDF (normal cells) = details: two hour incubation; for activity at 100 µM: 2 h, compound alone, control DMSO, read-out: POC (percent of control) HDF
Description: as §1, §2, §3

PC3 (prostate cancer) = details: two hour incubation; for activity at 100 µM: 2 h, compound alone, control DMSO, read-out: POC (percent of control) PC3
Description: as §1, §2, §3

MCF7 (breast cancer) = details: two hour incubation; for activity at 100 µM: Homo sapiens, MCF7, 2 h, compound alone, control DMSO, read-out: POC (percent of control) MCF7
Description: as §1, §2, §3

[1] = test system: MCF10A (non-cancerous breast); details: two hour incubation; for activity at 100 µM: Homo sapiens, MCF-10A, 2 h, compound alone, control DMSO, read-out: POC (percent of control) MCF10A
Description: as §1, §2, §3

SkBr3 (breast cancer) = details: two hour incubation; for activity at 100 µM: Homo sapiens, SK-BR-3, 2 h, compound alone, control DMSO, read-out: POC (percent of control) SkBr3
Description: as §1, §2, §3

T47D (breast cancer) = details: two hour incubation; for activity at 100 µM: Homo sapiens, T47D, 2 h, compound alone, control DMSO, read-out: POC (percent of control) T47D
Description: as §1, §2, §3

NCI-H196 (lung cancer) = details: two hour incubation; for activity at 100 µM: NCI-H196, 2 h, compound alone, control DMSO, read-out: POC (percent of control) NCI-H196
Description: as §1, §2, §3

MDA-MB (breast cancer) = details: two hour incubation; for activity at 100 µM: 2 h, compound alone, control DMSO, read-out: POC (percent of control) MDA-MB
Description: as §1, §2, §3

[2] = test system: BxPC3 (pancreatic cancer); details: two hour incubation; for activity at 100 µM: Homo sapiens, BXPC-3, 2 h, compound alone, control DMSO, read-out: POC (percent of control) BxPC3
Description: as §1, §2, §3

[3] = compound 100 uM + 2DG (about 10-20 mM)
[4] = compound 100 uM + rotenone (approximately 1.25 μM)

| SMILES | activity at 100 µM (HeLa (cervical cancer)) | POC (percent of control) HeLa (HeLa (cervical cancer); [3]) | POC (percent of control) HeLa (HeLa (cervical cancer); [4]) | activity at 100 µM (H293 (kidney cancer)) | POC (percent of control) H293 (H293 (kidney cancer); [3]) | POC (percent of control) H293 (H293 (kidney cancer); [4]) | activity at 100 µM (HDF (normal cells)) | POC (percent of control) HDF (HDF (normal cells); [3]) | POC (percent of control) HDF (HDF (normal cells); [4]) | activity at 100 µM (PC3 (prostate cancer)) | POC (percent of control) PC3 (PC3 (prostate cancer); [3]) | POC (percent of control) PC3 (PC3 (prostate cancer); [4]) | activity at 100 µM (MCF7 (breast cancer)) | POC (percent of control) MCF7 (MCF7 (breast cancer); [3]) | POC (percent of control) MCF7 (MCF7 (breast cancer); [4]) | activity at 100 µM [1] | POC (percent of control) MCF10A [1, 3] | POC (percent of control) MCF10A [1, 4] | activity at 100 µM (SkBr3 (breast cancer)) | POC (percent of control) SkBr3 (SkBr3 (breast cancer); [3]) | also measured |
| --- | --- | --- | --- | --- | --- | --- | --- | --- | --- | --- | --- | --- | --- | --- | --- | --- | --- | --- | --- | --- | --- |
| Cc1cccc2[nH]cc(CNS(=O)(=O)c3ccc(Cl)cc3)c12 [Compound 30, 4-chloro-N-[(4-methyl-1H-indol-3-yl)methyl]benzenesulfonamide] | 28.5% | 17.8% of control | 58.4% of control | 14% | 12.8% of control | 9.5% of control | 28.2% | 28.4% of control | 66.2% of control | 7.1% | 10.6% of control | 21.7% of control | 37.4% | 11.3% of control | 36% of control | 30% | 8.4% of control | 34.6% of control | 64.1% | 41.3% of control | POC (percent of control) SkBr3 (SkBr3 (breast cancer); [4]): 58.2% of control; activity at 100 µM (T47D (breast cancer)): 16.1%; POC (percent of control) T47D (T47D (breast cancer); [3]): 13.2% of control; POC (percent of control) T47D (T47D (breast cancer); [4]): 28% of control; activity at 100 µM (NCI-H196 (lung cancer)): 48%; POC (percent of control) NCI-H196 (NCI-H196 (lung cancer); [3]): 18.7% of control; POC (percent of control) NCI-H196 (NCI-H196 (lung cancer); [4]): 18.4% of control; activity at 100 µM (MDA-MB (breast cancer)): 38.6%; POC (percent of control) MDA-MB (MDA-MB (breast cancer); [3]): 41.5% of control; POC (percent of control) MDA-MB (MDA-MB (breast cancer); [4]): 48.3% of control; activity at 100 µM [2]: 15.8%; POC (percent of control) BxPC3 [2, 3]: 6.3% of control; POC (percent of control) BxPC3 [2, 4]: 45.7% of control |
| Cn1cc(CNS(=O)(=O)c2ccc(Cl)cc2)c2ccccc21 [Compound 29, 4-chloro-N-[(1-methyl-1H-indol-3-yl)methyl]benzenesulfonamide] | 80.9% | 83.9% of control | 93.1% of control | 91.2% | 55% of control | 50.5% of control | 95.8% | 73% of control | 81.5% of control | 77.8% | 67.5% of control | 67% of control | 105% | 90.9% of control | 98% of control | 78.9% | 46.2% of control | 62.7% of control | 102% | 72.5% of control | POC (percent of control) SkBr3 (SkBr3 (breast cancer); [4]): 78.6% of control; activity at 100 µM (T47D (breast cancer)): 90%; POC (percent of control) T47D (T47D (breast cancer); [3]): 60.7% of control; POC (percent of control) T47D (T47D (breast cancer); [4]): 77.6% of control; activity at 100 µM (NCI-H196 (lung cancer)): 192%; POC (percent of control) NCI-H196 (NCI-H196 (lung cancer); [3]): 51.3% of control; POC (percent of control) NCI-H196 (NCI-H196 (lung cancer); [4]): 100.3% of control; activity at 100 µM (MDA-MB (breast cancer)): 81.1%; POC (percent of control) MDA-MB (MDA-MB (breast cancer); [3]): 64.7% of control; POC (percent of control) MDA-MB (MDA-MB (breast cancer); [4]): 69.7% of control; activity at 100 µM [2]: 80.8%; POC (percent of control) BxPC3 [2, 3]: 51.7% of control; POC (percent of control) BxPC3 [2, 4]: 52.7% of control |
| Cc1ccc(S(=O)(=O)NCc2nn(C)c3ccccc23)cc1 [Compound 8, 4-methyl-N-[(1-methyl-1H-indazol-3-yl)methyl]benzenesulfonamide] | 106% | 80.8% of control | 99.1% of control | 112% | 83.5% of control | 87.1% of control | 99% | 91.3% of control | 88.3% of control | 109% | 87.9% of control | 108.3% of control | 140% | 86.2% of control | 116.7% of control | 94.6% | 77.9% of control | 94.4% of control | 88.8% | 97.1% of control | POC (percent of control) SkBr3 (SkBr3 (breast cancer); [4]): 103.7% of control; activity at 100 µM (T47D (breast cancer)): 64.1%; POC (percent of control) T47D (T47D (breast cancer); [3]): 94.6% of control; POC (percent of control) T47D (T47D (breast cancer); [4]): 101.2% of control; activity at 100 µM (NCI-H196 (lung cancer)): 91.1%; POC (percent of control) NCI-H196 (NCI-H196 (lung cancer); [3]): 99.2% of control; POC (percent of control) NCI-H196 (NCI-H196 (lung cancer); [4]): 95.1% of control; activity at 100 µM (MDA-MB (breast cancer)): 93.9%; POC (percent of control) MDA-MB (MDA-MB (breast cancer); [3]): 91.7% of control; POC (percent of control) MDA-MB (MDA-MB (breast cancer); [4]): 86.2% of control; activity at 100 µM [2]: 106%; POC (percent of control) BxPC3 [2, 3]: 87.1% of control; POC (percent of control) BxPC3 [2, 4]: 93.5% of control |
